Laboratory results reported in US11820756B2, “Bradykinin B2 receptor antagonists” (Pharvaris Netherlands B.V., priority 2017, dated 2023).

target: T1, human bradykinin B2 receptor (hB2R) (Homo sapiens, UniProt P30411); experiment: cell-based human bradykinin B2 receptor calcium mobilization (hB2R-CaM) assay; conditions: HTS041C cells, bradykinin at EC80, calcium mobilization; read-out: IC50-value towards human bradykinin B2 receptor (hB2R)
T1 sequence (P30411 1-391): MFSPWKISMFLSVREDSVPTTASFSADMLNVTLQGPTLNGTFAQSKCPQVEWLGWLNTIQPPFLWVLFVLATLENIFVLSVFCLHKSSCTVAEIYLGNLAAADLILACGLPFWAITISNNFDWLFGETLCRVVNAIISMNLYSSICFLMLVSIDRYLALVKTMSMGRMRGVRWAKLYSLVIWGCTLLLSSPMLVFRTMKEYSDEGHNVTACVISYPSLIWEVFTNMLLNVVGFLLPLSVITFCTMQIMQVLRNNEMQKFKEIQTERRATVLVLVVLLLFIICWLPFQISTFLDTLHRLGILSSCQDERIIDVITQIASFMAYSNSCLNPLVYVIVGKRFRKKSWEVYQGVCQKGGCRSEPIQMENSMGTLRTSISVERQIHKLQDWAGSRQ
Excerpt: The following cell-based human bradykinin B2 receptor calcium mobilization (hB2R-CaM) assay was used to determine the antagonistic activity of compounds selected from the example compounds Nos. 1 to 168 towards human bradykinin B2 receptor (hB2R). The assay is defined herein as a standard in vitro B2 receptor activity assay, which can be used to determine IC50 values of the compounds according to the present invention, e. g. the compounds shown in Examples 1-11.
The antagonistic activity of compounds according to the present invention was investigated with the hB2R-CaM assay using the B2 Bradykinin Receptor Stable Cell Line HTS041C (Eurofins, St. Charles MO) and the FLIPR Calcium 6 Assay Kit (Molecular Devices, Wokingham, UK) according to the instructions of the providers. CaM assay measurements were performed with a Flexstation 3 System (Molecular Devices) which allows the precise addition of compounds (B2R antagonists) and bradykinin (B2R agonist) to the cells and adjacent continuous recording of the time-dependent CaM assay signals.
HTS041C cells were cultured in high glucose DMEM cell culture medium (Lonza) supplemented with 10% heat-inactivated FBS (PAN Biotech), 10 mM HEPES, Penicillin/Streptomycin (200 U/mL, 200 μg/mL), 1× non-essential amino acids (Lonza), and 250 μg/mL G418 (Invivogen) in cell incubator at 37° C. in a 5% CO2 atmosphere.
One day before the CaM assay experiments cells were seeded in 200 μL DMEM cell culture medium with reduced FBS (5%) and without G418 on clear bottom black 96 well plates (ThermoFisher #165305). Cell starvation was carried out by incubation (37° C., 5% CO2) of 70.000 cells/well for 24 h to 28 h. Immediately prior calcium dye-loading the medium was carefully aspirated and cells were washed with Hank's balanced salt solution (HBSS, Gibco) containing Ca^2+, Mg^2+ and 20 mM HEPES, adjusted to pH 7.4 (HBSS+). Calcium Dye Loading of the Cells:
For calcium dye-loading one FLIPR 6 assay aliquot was dissolved in 20 mL HBSS+. 150 μL of the dye loading solution was added to cell plate and incubated for 120 min at 37° C. and 5% CO2. After dye loading the cell plate was immediately transferred to the pre-warmed (37° C.) Flexstation 3 System for CaM assaying.
Freshly prepared compound (B2 receptor antagonists) dilution series (8 pt, n=2) and bradykinin (B2 receptor agonist) solution in non-binding plates (Costar) were transferred to the Flexstation System (source plate) shortly before starting the experiment. Bradykinin was added in EC80 concentration determined in n>3 preliminary experiments with 8 pt concentration response curves (n=8)). CaM assay was executed by Flexstation 3 System starting with recording of calcium-sensitive dye fluorescence in bottom-read Flex modus with ex/em=485 nm/525 nm, cut off(em)=[…]. After 20 s, 50 μL of 4-fold concentrated compound dilutions were added to the cells resulting in a final DMSO (Sigma) concentration of 0.1% in the cell plate. CaM signals were monitored for 80 s after additions for detection of potential agonistic activities. Prior to bradykinin stimulus compound- and vehicle-treated cells were incubated for 25 min at 37° C. within the Flexstation System. Then 50 μL of a 5-fold concentrated bradykinin solution (HBSS+, 0.1% DMSO) was added to trigger CaM signals (Read out: Max-Min values) which were measured for 80 s post bradykinin stimulus.
IC50 determinations were performed by 4 parameter logistic model curve fitting of the 8 pt (n=2) compound concentration response curves using XLFIT (IDBS) software.
Relative IC50 values of the test compounds were determined with the same hB2R-CaM assay as in Example 12.

`Cc1cc(-c2ncnn2C)c2cccc(OCc3c(Cl)cc(F)cc3[C@H](C)NC(=O)C(C)(F)F)c2n1` [Compound 178] and `Cc1cc(-c2ncnn2C)c2cccc(OCc3c(Cl)cc(F)cc3[C@H](C)NC(=O)[C@@H](C)OC(F)F)c2n1` [Compound 85] cannot be ordered by IC50: at most 50 nM for the first, at most 50 nM for the second.

`Cc1cc(-c2[nH]ncc2C)c2cccc(OCc3c(Cl)cc(F)cc3[C@H](C)NC(=O)COC(F)F)c2n1` [Compound 185] and `Cc1cc(-c2[nH]ncc2C)c2cccc(OCc3c(Cl)cc(F)cc3[C@H](C)NC(=O)[C@@H](C)O)c2n1` [Compound 188] cannot be ordered by IC50: at most 50 nM for the first, at most 50 nM for the second.

First: CC[C@@H](O)C(=O)N[C@@H](C)c1cc(F)cc(Cl)c1COc1cccc2c(-n3cnc(C)n3)cc(C)nc12 [Compound 100]
Second: CC[C@@H](O)C(=O)N[C@@H](C)c1cc(F)cc(Cl)c1COc1cccc2c(-n3ncnc3C)cc(C)nc12 [Compound 99]
The IC50 of the first is higher: 251 to 1000 nM for the first, 51 to 250 nM for the second.

`[2H]C([2H])([2H])[C@H](NC(=O)COC(F)F)c1cc(F)cc(Cl)c1COc1cccc2c(-c3ncnn3C)cc(C)nc12` [Compound 202] and `[2H]C([2H])([2H])[C@]([2H])(NC(=O)COC(F)F)c1cc(F)cc(Cl)c1COc1cccc2c(-c3ncnn3C)cc(C)nc12` [Compound 11A, N-[(1S)-1-[3-chloro-5-fluoro-2-({[2-methyl-4-(1-methyl-1H-1,2,4-triazol-5-yl)quinolin-8-yl]oxy}methyl)phenyl](1,2,2,2-^2H4)ethyl]-2-(difluoromethoxy)acetamide] cannot be ordered by IC50: at most 50 nM for the first, at most 50 nM for the second.

`[2H][C@@](C)(NC(=O)CC(F)(F)F)c1cc(F)cc(Cl)c1COc1cccc2c(-c3ncnn3C)cc(C)nc12` [Compound 181] and `CCn1ncnc1-c1cc(C)nc2c(OCc3c(Cl)cc(F)cc3[C@H](C)NC(=O)COC(F)(F)F)cccc12` [Compound 145] cannot be ordered by IC50: at most 50 nM for the first, at most 50 nM for the second.

`Cc1cc(-c2ncnn2C)c2cccc(OCc3c(Cl)cc(F)cc3[C@H](C)NC(=O)c3cc(C)on3)c2n1` [Compound 127] and `Cc1cc(-c2ncnn2C)c2cccc(OCc3c(Cl)cc(F)cc3[C@H](C)NC(=O)c3ocnc3C)c2n1` [Compound 126] cannot be ordered by IC50: at most 50 nM for the first, at most 50 nM for the second.

First: Cc1cc(-n2cc(F)cn2)c2cccc(OCc3c(Cl)cc(F)cc3[C@H](C)NC(=O)[C@H]3CCCO3)c2n1 [Compound 20]
Second: Cc1cc(-n2cc(F)cn2)c2cccc(OCc3c(Cl)cc(F)cc3[C@H](C)NC(=O)C3CNC3)c2n1 [Compound 68]
The IC50 of the first is lower: at most 50 nM for the first, 51 to 250 nM for the second. The first is the more potent here.

Compared with `Cc1cc(-n2nc(C)nc2C)c2cccc(OCc3c(Cl)cc(F)cc3[C@H](C)NC(=O)C(C)(C)O)c2n1` [Compound 138], `Cc1cc(-n2ncnc2C)c2cccc(OCc3c(Cl)cc(F)cc3[C@H](C)NC(=O)C(C)(C)O)c2n1` [Compound 160] is lower in IC50: 51 to 250 nM for the first, at most 50 nM for the second.

`Cc1cc(-c2ncnn2C)c2cccc(OCc3c(Cl)cc(F)cc3[C@H](CO)NC(=O)COC(F)F)c2n1` [Compound 190] and `CC[C@H](NC(=O)COC(F)F)c1cc(F)cc(Cl)c1COc1cccc2c(-c3ncnn3C)cc(C)nc12` [Compound 131] cannot be ordered by IC50: at most 50 nM for the first, at most 50 nM for the second.

First: Cc1cc(-n2cc(F)cn2)c2cccc(OCc3c(Cl)cc(F)cc3[C@H](C)NC(=O)[C@H]3COC(=O)N3)c2n1 [Compound 112]
Second: Cc1cc(-n2cc(F)cn2)c2cccc(OCc3c(Cl)cc(F)cc3[C@H](C)NC(=O)[C@@H]3COC(C)(C)O3)c2n1 [Compound 61]
The IC50 of the first is higher: 51 to 250 nM for the first, at most 50 nM for the second. The second is the more potent here.

First: CO[C@@H](C)C(=O)N[C@@H](C)c1cc(F)cc(Cl)c1COc1cccc2c(-n3nccn3)cc(C)nc12 [Compound 29]
Second: Cc1cc(-n2nccn2)c2cccc(OCc3c(Cl)cc(F)cc3[C@H](C)NC(=O)C(C)(C)O)c2n1 [Compound 28]
The IC50 of the first is lower: at most 50 nM for the first, 51 to 250 nM for the second.

`Cc1cc(-c2ncnn2C)c2cccc(OCc3c(Cl)cc(F)cc3[C@H](C)NC(=O)C3CCC(C)(C)O3)c2n1` (stereo partly drawn) [Compound 118] and `CCn1ncnc1-c1cc(C)nc2c(OCc3c(Cl)cc(F)cc3[C@H](C)NC(=O)C(C)(C)O)cccc12` [Compound 143] cannot be ordered by IC50: at most 50 nM for the first, at most 50 nM for the second.

`Cc1cc(-c2ccnn2C)c2cccc(OCc3c(Cl)cc(F)cc3[C@H](C)NC(=O)CO)c2n1` [Compound 194] and `Cc1cc(-c2ccnn2C)c2cccc(OCc3c(Cl)cc(F)cc3[C@H](C)NC(=O)C(C)(C)O)c2n1` [Compound 184] cannot be ordered by IC50: at most 50 nM for the first, at most 50 nM for the second.

`CC[C@H](NC(=O)COC(F)F)c1cc(F)cc(Cl)c1COc1cccc2c(-n3ncnc3C)cc(C)nc12` [Compound 166] and `Cc1cc(-n2ncnc2C)c2cccc(OCc3c(Cl)cc(F)cc3[C@H](C)NC(=O)COC(F)(F)F)c2n1` [Compound 161] cannot be ordered by IC50: at most 50 nM for the first, at most 50 nM for the second.

Compared with `Cc1cc(-n2nc(C)nc2C)c2cccc(OCc3c(Cl)cc(F)cc3[C@H](C)NC(=O)c3cc(C)on3)c2n1` [Compound 136], `Cc1cc(-n2ncnc2C)c2cccc(OCc3c(Cl)cc(F)cc3[C@H](C)NC(=O)c3coc(C)n3)c2n1` [Compound 156] is lower in IC50: 51 to 250 nM for the first, at most 50 nM for the second. The second is the more potent here.

`CCc1ncnn1-c1cc(C)nc2c(OCc3c(Cl)cc(F)cc3[C@H](C)NC(=O)c3cocn3)cccc12` [Compound 170] and `Cc1cc(-n2ncnc2C)c2cccc(OCc3c(Cl)cc(F)cc3[C@H](C)NC(=O)c3cocn3)c2n1` [Compound 159] cannot be ordered by IC50: at most 50 nM for the first, at most 50 nM for the second.

Compared with `Cc1cc(-n2ncnc2C)c2cccc(OCc3c(Cl)cc(F)cc3[C@H](C)NC(=O)[C@@H](C)O)c2n1` [Compound 97], `Cc1cc(-n2ncnc2C)c2cccc(OCc3c(Cl)cc(F)cc3[C@H](C)NC(=O)C(C)F)c2n1` (stereo partly drawn) [Compound 193] is lower in IC50: 51 to 250 nM for the first, at most 50 nM for the second. The second is the more potent here.

`Cc1cc(-n2cc(F)cn2)c2cccc(OCc3c(Cl)cc(F)cc3[C@H](C)NC(=O)C(F)F)c2n1` [Compound 146] and `CC[C@H](NC(=O)C(F)F)c1cc(F)cc(Cl)c1COc1cccc2c(-n3cc(F)cn3)cc(C)nc12` [Compound 151] fall in the same range of IC50: 51 to 250 nM for the first, 51 to 250 nM for the second.

`CCn1ncnc1-c1cc(C)nc2c(OCc3c(Cl)cc(F)cc3[C@H](C)NC(=O)COC(F)F)cccc12` [Compound 140] and `Cc1cc(-c2ncc(C#N)n2C)c2cccc(OCc3c(Cl)cc(F)cc3[C@H](C)NC(=O)COC(F)F)c2n1` [Compound 205] cannot be ordered by IC50: at most 50 nM for the first, at most 50 nM for the second.

`Cc1cc(-n2cc(F)cn2)c2cccc(OCc3c(Cl)cc(F)cc3[C@H](C)NC(=O)[C@@H](C)OC(F)F)c2n1` [Compound 93] and `Cc1cc(-n2cc(F)cn2)c2cccc(OCc3c(Cl)cc(F)cc3[C@H](C)NC(=O)C(C)OCC3CC3)c2n1` (stereo partly drawn) [Compound 51] fall in the same range of IC50: 51 to 250 nM for the first, 51 to 250 nM for the second.

`Cc1cc(-c2ncnn2C)c2cccc(OCc3c(Cl)cc(F)cc3[C@H](CO)NC(=O)c3cnco3)c2n1` [Compound 191] and `Cc1cc(-c2[nH]ncc2C)c2cccc(OCc3c(Cl)cc(F)cc3[C@H](C)NC(=O)c3cnco3)c2n1` [Compound 187] cannot be ordered by IC50: at most 50 nM for the first, at most 50 nM for the second.

`Cc1cc(-n2cc(F)cn2)c2cccc(OCc3c(Cl)cc(F)cc3[C@H](C)N(C)C(=O)C(C)(C)O)c2n1` [Compound 101] and `CCOCC(=O)N[C@@H](C)c1cc(F)cc(Cl)c1COc1cccc2c(-n3cc(F)cn3)cc(C)nc12` [Compound 18] cannot be ordered by IC50: at most 50 nM for the first, at most 50 nM for the second.

`[2H][C@@](C)(NC(=O)c1cocn1)c1cc(F)cc(Cl)c1COc1cccc2c(-n3ncnc3C)cc(C)nc12` [Compound 198] gave an IC50 of at most 50 nM.
